In ChEMBL document CHEMBL5214939, “Design, synthesis and biological evaluations of novel farnesoid X receptor (FXR) agonists” (Bioorg Med Chem Lett, 2022):
Activity calls are given as the source filed them. The rule behind the calls is not given here.

Legend:
[1] = AUCinfinity in mouse at 100 mg/kg, po; type: ADME, organism-based; design: time infinity, dose 100 mg/kg, route po; conditions: in vivo
[2] = organism: Mus musculus; test: Protection against Con-A induced autoimmune hepatitis mouse model assessed as reduction in ALT level; type: functional, organism-based
[3] = AUC (0 to t) in mouse at 100 mg/kg, po; type: ADME, organism-based; design: dose 100 mg/kg, route po; conditions: in vivo
[4] = Tmax in mouse at 100 mg/kg, po; type: ADME, organism-based; conditions: in vivo
[5] = Clearance in mouse at 100 mg/kg, po or 5 mg/kg, iv; type: ADME, organism-based; conditions: in vivo
[6] = Oral bioavailability in mouse at 100 mg/kg; type: ADME, organism-based; conditions: in vivo
[7] = Cmax in mouse at 100 mg/kg, po; type: ADME, organism-based; design: dose 100 mg/kg, route po; conditions: in vivo
[8] = AUCinfinity in mouse at 5 mg/kg, iv; type: ADME, organism-based; design: time infinity, dose 5 mg/kg, route iv; conditions: in vivo
[9] = organism: Mus musculus; test: Protection against Con-A induced autoimmune hepatitis mouse model assessed as reduction in AST level; type: functional, organism-based
[10] = Half life in mouse at 100 mg/kg, po; type: ADME, organism-based; conditions: in vivo
[11] = AUC (0 to t) in mouse at 5 mg/kg, iv; type: ADME, organism-based; design: dose 5 mg/kg, route iv; conditions: in vivo
[12] = molecular target: T1, Bile acid receptor (Homo sapiens, UniProt Q96RI1); test: Agonist activity at FXR in HEK293T cells assessed as transcriptional activity by measuring […] by luciferase reporter assay; type: cell-based
T1 sequence (Q96RI1 whole entry): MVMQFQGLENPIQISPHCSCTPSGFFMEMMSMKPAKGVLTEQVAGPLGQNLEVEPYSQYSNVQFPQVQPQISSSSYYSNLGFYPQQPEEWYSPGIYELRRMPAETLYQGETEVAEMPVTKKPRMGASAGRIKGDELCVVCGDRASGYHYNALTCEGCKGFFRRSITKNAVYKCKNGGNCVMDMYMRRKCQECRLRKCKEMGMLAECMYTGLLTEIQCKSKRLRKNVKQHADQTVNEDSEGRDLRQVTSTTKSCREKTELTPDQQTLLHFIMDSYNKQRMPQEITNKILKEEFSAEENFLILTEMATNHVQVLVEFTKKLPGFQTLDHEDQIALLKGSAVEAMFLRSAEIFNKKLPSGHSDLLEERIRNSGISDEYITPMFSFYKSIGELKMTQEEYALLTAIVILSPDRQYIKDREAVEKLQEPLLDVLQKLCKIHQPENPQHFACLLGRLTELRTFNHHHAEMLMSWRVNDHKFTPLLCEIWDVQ

[13] = Oral bioavailability in mouse at 20 mg/kg; type: ADME, organism-based; conditions: in vivo
[14] = Cmax in mouse at 20 mg/kg, po; type: ADME, organism-based; design: dose 20 mg/kg, route po; conditions: in vivo
[15] = AUC (0 to t) in mouse at 20 mg/kg, po; type: ADME, organism-based; design: dose 20 mg/kg, route po; conditions: in vivo
[16] = Clearance in mouse at 20 mg/kg, po or 5 mg/kg, iv; type: ADME, organism-based; conditions: in vivo
[17] = Half life in mouse at 20 mg/kg, po; type: ADME, organism-based; conditions: in vivo
[18] = AUCinfinity in mouse at 20 mg/kg, po; type: ADME, organism-based; design: time infinity, dose 20 mg/kg, route po; conditions: in vivo
[19] = Tmax in mouse at 20 mg/kg, po; type: ADME, organism-based; conditions: in vivo

SMILES: CN(Cc1cccc(C(=O)O)c1)c1ccc(OCc2c(-c3c(Cl)cccc3Cl)nsc2C2CC2)nc1C(F)(F)F
- AUC [1]: 5415 ng·h/mL
- Activity [2]: Active
- AUC(0-t) [3]: 5370 ng·h/mL
- Tmax [4]: 0.5 h
- CL [5]: 14.3 mL/min/kg
- F [6]: 73%
- Cmax [7]: 40200 ng/mL
- AUC [8]: 5822 ng·h/mL
- Activity [9]: Active
- half-life [10]: 2.6 h
- AUC(0-t) [11]: 5760 ng·h/mL
- EC50 [12]: 270 nM

SMILES: CN(Cc1ccc(C(=O)NO)cc1)c1ccc(OCc2c(-c3c(Cl)cccc3Cl)nsc2C2CC2)nc1C(F)(F)F
- EC50 [12]: > 30000 nM

SMILES: CC(C)c1snc(-c2c(Cl)cccc2Cl)c1COc1ccc(N(C)Cc2ccc(C(=O)O)cc2)c(C(F)(F)F)n1
- Activity [2]: Active
- Activity [9]: Active
- EC50 [12]: 350 nM

SMILES: CC(C)c1snc(-c2c(Cl)cccc2Cl)c1COc1ccc(N(C)CC2CCCC(C(=O)O)C2)c(C(F)(F)F)n1 (centres undefined)
- EC50 [12]: > 30000 nM

SMILES: CN(Cc1ccc(C(=O)O)cc1)c1ccc(OCc2c(-c3c(Cl)cccc3Cl)nsc2C2CC2)cc1C(F)(F)F
- Activity [2]: Active
- EC50 [12]: 410 nM

SMILES: CN(Cc1cccc(C(=O)NO)c1)c1ccc(OCc2c(-c3c(Cl)cccc3Cl)nsc2C2CC2)nc1C(F)(F)F
- EC50 [12]: 1090 nM

SMILES: CC(C)c1onc(-c2c(Cl)cccc2Cl)c1COc1ccc(/C=C/c2cccc(C(=O)O)c2)c(Cl)c1
- F [13]: 42.81%
- Cmax [14]: 4787 ng/mL
- AUC(0-t) [15]: 85200 ng·h/mL
- AUC [8]: 3162 ng·h/mL
- CL [16]: 26.3 mL/min/kg
- AUC(0-t) [11]: 3140 ng·h/mL
- t1/2 [17]: 1.53 h
- AUC [18]: 85283 ng·h/mL
- Tmax [19]: 0.5 h

SMILES: CN(Cc1ccc(C(=O)O)cc1)c1ccc(OCc2c(-c3c(Cl)cccc3Cl)nsc2C2CC2)nc1C(F)(F)F
- Activity [2]: Active
- EC50 [12]: 310 nM

SMILES: CC(C)c1snc(-c2c(Cl)cccc2Cl)c1COc1ccc(N(C)Cc2ccc(C(=O)O)s2)c(C(F)(F)F)n1
- EC50 [12]: 510 nM

SMILES: CCN(Cc1ccc(C(=O)O)cc1)c1ccc(OCc2c(-c3c(Cl)cccc3Cl)nsc2C(C)C)nc1C(F)(F)F
- EC50 [12]: 2160 nM

SMILES: CC(C)c1snc(-c2c(Cl)cccc2Cl)c1COc1ccc(/C=C/c2cccc(C(=O)O)c2)c(Cl)c1
- EC50 [12]: 570 nM
